Results on four molecules are retold here after PMC8869984, “Multifunctional Silver(I) Complexes with Metronidazole Drug Reveal Antimicrobial Properties and Antitumor Activity against Human Hepatoma and Colorectal Adenocarcinoma Cells” (Cancers, 2022).

Data set [1] in a line: light stability in normal daylight, visual assessment. The data set is classed as physicochemical. The note with it: for time to complete darkening: on both groundworks (paper, tissue paper).
Data set [2] relates to Balb/c 3T3 cells. Kind of data set: cytotoxicity, MTT, NRU, TPC and LDH assays taken together, 72 h. It counts as cell-based, murine. The note with it: non-cancer Balb/c 3T3 cells, range over MTT, TPC, LDH. Here is the method:
The human hepatoma (HepG2) and colorectal adenocarcinoma (Caco-2) cells were purchased from the American Type Culture Collection: ATCC HB-8065 and ATCC HTB-37, respectively. These cells were cultured in Minimum Essential Medium Eagle (MEME) (ATCC). The murine fibroblasts cell line (Balb/c 3T3 clone A31) (gift from the Department of Swine Diseases of the National Veterinary Research Institute in Pulawy) was cultured in Dulbecco’s Modified Eagle Medium (DMEM) (ATCC). The media were supplemented with 10% BCS (Balb/c 3T3), 10% FBS (HepG2), 20% FBS (Caco-2), 1% L-glutamine, 1% antibiotic solution. […] Cytotoxicity was assessed after 72 h of exposure of the cells to compounds. […]
The metabolic activity of living cells was assessed by the measurement of the activity of dehydrogenases. […] The plate was shaken for 15 min at room temperature and transferred to a microplate reader Synergy HTX multi-mode reader (BioTek® Instruments Inc., Winooski, VT, USA) to measure the absorbance at 570 nm, using a blank as a reference. Cytotoxicity was expressed as a percentage of the negative control.
This method is based on staining living cells with neutral red, which readily diffuses through the plasma membrane and accumulates in lysosomes. […] Cytotoxicity was expressed as a percentage of the negative control. […]

For data set [3], the system named is Caco-2 cells. Nature of the data set: NRU assay (lysosomal activity), 72 h exposure. It counts as cell-based, human. The note with it: Caco-2, NRU.
Data set [4] relates to S. aureus biofilm. Nature of the data set: qualitative antibiofilm activity, confocal laser scanning microscope (CLSM). Particulars: 500 mg/L, 24 h exposure.
The subject of data set [5] is HepG2 cells. Kind of data set: LDH leakage assay (membrane integrity), 72 h exposure. It counts as cell-based, human. As to the method:
(§1) The human hepatoma (HepG2) and colorectal adenocarcinoma (Caco-2) cells were purchased from the American Type Culture Collection: ATCC HB-8065 and ATCC HTB-37, respectively. These cells were cultured in Minimum Essential Medium Eagle (MEME) (ATCC). The murine fibroblasts cell line (Balb/c 3T3 clone A31) (gift from the Department of Swine Diseases of the National Veterinary Research Institute in Pulawy) was cultured in Dulbecco’s Modified Eagle Medium (DMEM) (ATCC). The media were supplemented with 10% BCS (Balb/c 3T3), 10% FBS (HepG2), 20% FBS (Caco-2), 1% L-glutamine, 1% antibiotic solution. The cells were maintained in 75 cm^2 cell culture flasks (NUNC) in a humidified incubator at 37 °C in an atmosphere of 5% CO2. The medium was refreshed every two or three days, and the cells were trypsinized by 0.25% trypsin–0.02% EDTA after reaching 70–80% confluence. Single cell suspensions were prepared and adjusted to a density of 2 × 10^5 cell/mL^−1 (HepG2), 1 × 10^5 cell/mL^−1 (Caco-2) and 5 × 10^4 cell/mL^−1 (Balb/c 3T3). The cell suspension was transferred to 96-well plates (100 µL/well) and incubated for 24 h before the exposure to the studied compounds. Stock solutions of ligands and metal complexes were prepared in sterile water and diluted with culture medium to obtain a concentration range from 0.1 to 10 µM. The final concentration of sterile water was 0.1% in the medium. […] As a negative control, cultured cells were grown in the absence of studied compounds. Each concentration was tested in six replicates in three independent experiments. Cytotoxicity was assessed after 72 h of exposure of the cells to compounds. The medium was not changed during the incubation time.
(§2) The integrity of the plasma membrane was assessed through the test of lactate dehydrogenase (LDH) release, which was monitored using the commercially available Cytotoxicity Detection Kit (LDH) (Roche Diagnostics, Warsaw, Poland). […] The absorbance was measured at 492 nm in a microplate reader Synergy HTX multi-mode reader (BioTek® Instruments Inc., Winooski, VT, USA) using a blank as a reference. […]

Data set [6] concerns Caco-2 cells. The description is as above. It counts as cell-based, human. The note with it: Caco-2, LDH.
Data set [7] has as its system Caco-2 cells. Nature of the data set: TPC assay (total protein content), 72 h exposure. It counts as cell-based, human. The note with it: Caco-2, TPC.
Data set [8] concerns reference aerobic and anaerobic microorganisms (ATCC). Kind of data set: micro-dilution broth method, whole panel of reference strains. Particulars: against the majority of tested bacterial strains. It counts as cell-based. In general terms: In broth dilution the organism is exposed to a series of concentrations in liquid medium.
The subject of data set [9] is Balb/c 3T3 cells. Nature of the data set: LDH leakage assay (membrane integrity), 72 h exposure. The data set is classed as cell-based, murine. Here is the method: as §1, §2
Background: LDH leaks from cells whose membrane has failed.

Data set [10] in a line: solubility in water. The data set is classed as physicochemical. Particulars: qualitative statement.
The mark [11] stands for this setting: 1.25 µmol applied on tissue paper.

As to `O=[N+]([O-])[O-].[Ag+]` [AgNO3, Silver nitrate], the entries for the “time of exposure after which darkening began” value in data set [1] (1.25 µmol applied on paper) and in data set [1] (setting [11]) were 10 min and 30 min, respectively. Also, the “time to complete darkening” value in [1] amounted to 24 h.
By IC50 is commonly meant the concentration at which inhibition is half-maximal. As to `O=S(=O)([O-])[O-].[Ag+].[Ag+]` [Ag2SO4, silver sulfate], the IC50 in [2] is 1.92 to 2.57 µM. Moreover, the “time of exposure after which darkening began” value in data set [1] (1.25 µmol applied on paper) was determined as 10 min; in [1] (setting [11]), 30 min. In addition, in data set [1], the “time to complete darkening” value amounted to 24 h.
Take `Cc1ncc([N+](=O)[O-])n1CCO.Cc1ncc([N+](=O)[O-])n1CCO.Cc1ncc([N+](=O)[O-])n1CCO.Cc1ncc([N+](=O)[O-])n1CCO.O=S(=O)([O-])[O-].[Ag+].[Ag+]` [[Ag(MTZ)2]2SO4]: the “lowest concentration with inhibition of lysosomal activity” value in [3] (Figure 6) is 1.0 µM. Besides, in [4], the “effect on biofilm (CLSM, qualitative)” value is “significantly reduced biofilm density”. The “lowest concentration with significant (p ≤ 0.05) effect” value in data set [5] (Figure 6) came to 5.0 µM; in data set [9] (Balb/c 3T3, LDH, Figure 6), 5.0 µM. For the same molecule, the “lowest concentration with significant (p ≤ 0.05) disintegration of cellular membranes” value in [6] (Figure 6) is 0.5 µM. Also, in data set [7] (Figure 6), the “lowest concentration with decreased total protein content” value was found to be 5.0 µM. The “minimal inhibition concentration (MIC), range” value in [8] was in the range of 0.24 to 250 µg/mL. Besides, the solubility in water entry in data set [10] was “more soluble in water in comparison to Ag2SO4”.
As for `Cc1ncc([N+](=O)[O-])n1CCO` [MTZ, 2-Methyl-5-nitroimidazole-1-ethanol], the IC50 in data set [3] (Homo sapiens, mean ± SD, n = 3) was more than 10 µM; in data set [5] (Homo sapiens, mean ± SD, n = 3), more than 10 µM; in data set [6] (Homo sapiens, mean ± SD, n = 3), more than 10 µM; in data set [7] (Homo sapiens, mean ± SD, n = 3), more than 10 µM; in data set [9] (Mus musculus, BALB/c3T3, Balb/c 3T3, LDH, mean ± SD, n = 3) it was more than 10 µM.
